From US5455161A, “Method for the monitoring of multiple anticancer drug resistance” (priority 1992, dated 1995)
Numbered stars: 1 amine (or outer) side, 2 acyl side, 3 side chain; on linkers, the order of the positions; unused ones are H or OH. Bridge positions count the residues as written; N and C are the ends. Square brackets hold non-standard residues; d marks the D form. Peptide text beside a SMILES is read from it. I, II: the chains in the order shown. Actinocin(9to1) = Cc1c2oc3c(C)ccc(C(=O)[*:1])c3nc-2c(C(=O)[*:2])c(N)c1=O; NMeV = CN[C@H](C(=O)O)C(C)C; Sar = CNCC(=O)O

Tests used:
[1] = tested on: AA8 cells; assay: ODC (ornithine decarboxylase activity) assay of cellular drug sensitivity, wild type AA8 cells; type: cell-based, Chinese hamster; details: for IC50: Cricetulus griseus, read-out: IC50 (ODC assay) AA8
Method: (§1) The protein determinations were carried out according to the method of Bradford (Anal.Biochem. 72, 248-54, 1976), using lysozyme, triple crystallization and dialysis, as a standard.
(§2) Monolayers of parental AA8 and multidrug resistant T19 cells grown for 4 days at 37° C., were exposed to various concentrations of the antimitotic agent colchinine, for 6 hours, 18 hours and 48 hours and then the activity of ornithine decarboxylase was determined.
(§3) In the same manner, this assay was tested with various anticancer drugs of various structure and distinct mechanisms of action. The following cytotoxic agents were tested: vinca alkaloids, anthracyclines, epipodophyllotoxins, actinomycin D and antifolates.

[2] = tested on: T19 cells; assay: cells; type: cell-based, Chinese hamster
Method: (§4) Clonogenic cytotoxic assays were performed with AA8 and T19 cells exposed to various concentrations of colchinine for 6 hours, 18 hours, 48 hours or continuously, and each time the clonal surviving fractions were determined.

[3] = tested on: AA8 cells; assay: cells; type: cell-based, Chinese hamster; details: for IC50: Cricetulus griseus, CHO-AA8, read-out: LD50 (clonogenic assay) AA8
Method: as §4

[4] = tested on: T19 cells; assay: ODC (ornithine decarboxylase activity) assay of drug resistance, multidrug resistant T19 cells; type: cell-based, Chinese hamster; details: for IC50: Cricetulus griseus, read-out: IC50 (ODC assay) T19; for Resistance (-fold), ODC assay, T19 versus AA8: T19/AA8 ratio of IC50
Method: as §1, §2, §3

[5] = target: T1, ornithine decarboxylase from AA8 cells (Cricetulus griseus, UniProt P14019); assay: biochemical; details: IC50, concentration required to reduce the ornithine decarboxylase by 50%
T1 sequence (P14019 1-455): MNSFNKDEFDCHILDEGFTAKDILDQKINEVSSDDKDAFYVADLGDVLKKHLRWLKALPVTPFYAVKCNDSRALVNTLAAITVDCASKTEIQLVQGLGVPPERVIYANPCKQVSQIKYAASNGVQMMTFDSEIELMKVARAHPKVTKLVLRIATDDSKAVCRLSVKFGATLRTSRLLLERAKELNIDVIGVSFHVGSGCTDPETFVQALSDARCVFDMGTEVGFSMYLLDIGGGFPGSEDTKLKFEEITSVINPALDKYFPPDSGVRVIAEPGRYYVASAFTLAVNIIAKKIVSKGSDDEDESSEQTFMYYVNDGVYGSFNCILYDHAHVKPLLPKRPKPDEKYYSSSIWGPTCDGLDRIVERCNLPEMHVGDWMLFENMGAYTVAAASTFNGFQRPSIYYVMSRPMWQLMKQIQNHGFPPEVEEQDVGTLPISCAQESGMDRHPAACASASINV
Method: Monolayer cells grown in the absence and presence of a known cytotoxic agent, were washed twice with 10 mls of phosphate-buffered saline and suspended in a petri dish (0.5 ml/10 cm) in an ice-cold ornithine decarboxylase buffer containinig 50 mM of Tris-Cl, pH=7.3, 0.1 mM ethylene diamine tetraacetic acid, 50 uM pyridoxal 5'-phosphate (Sigma) and 5 mM of dithiothreitol. The cells were lysed under three cycles of freezing in liquid nitrogen and thawing at 37° C. The cell lysates were then centrifuged at 15,000 g for 15 minutes at 4° C., the supernatant liquid was collected and used in the assay for the ornithine decarboxylase activity. The assay was based on the Djurhuss method that utilizes a strong cation-exchange paper (Anal. Biochem. 113:352-5, 1981). […] After incubation for 60 minutes at 37° C. under agitation, the reaction mixture was spotted onto a strip of P81 cellulose phosphate paper and dried. After washing in a solution of 0.1M ammonium hydroxide and drying,liquid scintillation counting was performed. In similar manner, blank values were determined by using 80 ul of ornithine decarboxylase buffer, instead of the cytosolic cell extract.

[6] = CHO-AA8, incubation time 18 hr, mean of two to four independent experiments
[7] = Cricetulus griseus, read-out: LD50 (clonogenic assay) T19
[8] = incubation time 18 hr, mean of two to four independent experiments
[9] = CHO-AA8, incubation time 48 hr, mean of two to four independent experiments
[10] = incubation time 48 hr, mean of two to four independent experiments

**Q.** For `CC[C@]1(O)C[C@H]2CN(CCc3c([nH]c4ccccc34)[C@@](C(=O)OC)(c3cc4c(cc3OC)N(C=O)[C@H]3[C@@](O)(C(=O)OC)[C@H](OC(C)=O)[C@]5(CC)C=CCN6CC[C@]43[C@@H]65)C2)C1` [Vincristine], which IC50 [1, 6] is on record?
**A.** Its IC50 is 79.6 nM.

**Q.** And the IC50 [2, 7]?
**A.** The IC50 was 229 nM.

**Q.** What about the “Resistance (-fold), clonogenic assay, T19 versus AA8” value (shortened to “Resistance (-fold), clonogenic assay”) ([2]; hamster, t19 vs aa8 cells) of the same molecule?
**A.** The value was 28.1 -fold.

**Q.** What about the IC50 [3] of the same molecule?
**A.** Its IC50 is 8.2 nM.

**Q.** What about the IC50 [4, 8] of the same molecule?
**A.** The IC50 was 1530 nM.

**Q.** And the “Resistance (-fold), ODC assay, T19 versus AA8” value (“Resistance (-fold), ODC assay” for short) ([4]; incubation time 18 hr)?
**A.** Its value is 19.2 -fold.

**Q.** Which results are given for `COc1cc([C@@H]2c3cc4c(cc3[C@@H](O[C@@H]3O[C@@H]5CO[C@@H](C)O[C@H]5[C@H](O)[C@H]3O)[C@H]3COC(=O)[C@H]23)OCO4)cc(OC)c1O` [Etoposide]?
**A.** IC50 ([1]; CHO-AA8, 48 h): 366 nM; IC50 [2, 7]: 4200 nM; Resistance (-fold), clonogenic assay, T19 versus AA8 ([2]; ratio of LD50 T19/AA8): 15.9 -fold; IC50 [3]: 265 nM; IC50 ([4]; 48 h): 4180 nM; Resistance (-fold), ODC assay, T19 versus AA8 ([4]; incubation time 48 hr): 11.4 -fold

**Q.** With `COc1cccc2c1C(=O)c1c(O)c3c(c(O)c1C2=O)C[C@@](O)(C(C)=O)C[C@@H]3O[C@H]1C[C@H](N)[C@H](O)[C@H](C)O1` [Daunorubicin] as the molecule, how does the IC50 [1, 9] read?
**A.** Its IC50 is 29.6 nM.

**Q.** What about the IC50 [2, 7] of the same molecule?
**A.** The IC50 was 726 nM.

**Q.** And the “Resistance (-fold), clonogenic assay” value ([2]; hamster, t19 vs aa8 cells)?
**A.** Its value is 84.1 -fold.

**Q.** What about the IC50 [3] of the same molecule?
**A.** The IC50 was 8.6 nM.

**Q.** And the IC50 [4, 10]?
**A.** Its IC50 is 1860 nM.

**Q.** What about the “Resistance (-fold), ODC assay” value ([4]; incubation time 48 hr) of the same molecule?
**A.** The value was 63.0 -fold.

**Q.** Which results are given for `COc1cc(NCc2ccc3nc(N)nc(N)c3c2C)cc(OC)c1OC` [Trimetrexate]?
**A.** IC50 [1, 9]: 2.9 nM; IC50 [2, 7]: 68.6 nM; Resistance (-fold), clonogenic assay, T19 versus AA8 ([2]; hamster, t19 vs aa8 cells): 28.6 -fold; IC50 [3]: 2.4 nM; IC50 [4, 10]: 72.4 nM; Resistance (-fold), ODC assay, T19 versus AA8 ([4]; incubation time 48 hr): 25.0 -fold

**Q.** `COc1cccc2c1C(=O)c1c(O)c3c(c(O)c1C2=O)C[C@@](O)(C(=O)CO)C[C@@H]3O[C@H]1C[C@H](N)[C@H](O)[C@H](C)O1` [Doxorubicin] was tested. Which IC50 [1, 9] did it give?
**A.** Its IC50 is 55 nM.

**Q.** And the IC50 [2, 7]?
**A.** Its IC50 is 8450 nM.

**Q.** What about the IC50 [3] of the same molecule?
**A.** Its IC50 is 40 nM.

**Q.** What about the IC50 [4, 10] of the same molecule?
**A.** Its IC50 is 3580 nM.

**Q.** And the “Resistance (-fold), ODC assay” value ([4]; incubation time 48 hr)?
**A.** Its value is 65.0 -fold.

**Q.** With `CN(Cc1cnc2nc(N)nc(N)c2n1)c1ccc(C(=O)N[C@@H](CCC(=O)O)C(=O)O)cc1` [Methotrexate] as the molecule, how does the IC50 [1, 9] read?
**A.** Its IC50 is 56.5 nM.

**Q.** What about the IC50 [2, 7] of the same molecule?
**A.** The IC50 was 30.6 nM.

**Q.** What about the “Resistance (-fold), clonogenic assay” value ([2]; hamster, t19 vs aa8 cells) of the same molecule?
**A.** Its value is 1.2 -fold.

**Q.** What about the IC50 [3] of the same molecule?
**A.** Its IC50 is 25.1 nM.

**Q.** And the IC50 [4, 10]?
**A.** Its IC50 is 63.8 nM.

**Q.** And the “Resistance (-fold), ODC assay” value ([4]; incubation time 48 hr)?
**A.** The value was 1.1 -fold.

**Q.** Which IC50 [1, 9] does the source give for `Cc1nc(N)nc(N)c1-c1ccc(Cl)c(Cl)c1` [Metoprine] here?
**A.** Its IC50 is 13.8 nM.

**Q.** And the IC50 [2, 7]?
**A.** Its IC50 is 33.7 nM.

**Q.** What about the “Resistance (-fold), clonogenic assay” value ([2]; hamster, t19 vs aa8 cells) of the same molecule?
**A.** Its value is 2.7 -fold.

**Q.** And the IC50 [3]?
**A.** The IC50 was 12.6 nM.

**Q.** And the IC50 [4, 10]?
**A.** Its IC50 is 53.2 nM.

**Q.** What about the “Resistance (-fold), ODC assay” value ([4]; incubation time 48 hr) of the same molecule?
**A.** Its value is 3.9 -fold.

**Q.** Which results are given for `CC[C@]1(O)C[C@@H]2CN(CCc3c([nH]c4ccccc34)[C@@](C(=O)OC)(c3cc4c(cc3OC)N(C)[C@H]3[C@@](O)(C(=O)OC)[C@H](OC(C)=O)[C@]5(CC)C=CCN6CC[C@]43[C@@H]65)C2)C1` [Vinblastine]?
**A.** IC50 [1, 6]: 15.9 nM; IC50 [2, 7]: 80 nM; Resistance (-fold), clonogenic assay, T19 versus AA8 ([2]; hamster, t19 vs aa8 cells): 26.7 -fold; IC50 [3]: 3 nM; IC50 [4, 8]: 275 nM; Resistance (-fold), ODC assay, T19 versus AA8 ([4]; incubation time 18 hr): 17.3 -fold

**Q.** What does the source list for `Cc1c2oc3c(C)ccc(C(=O)N[C@@H]4C(=O)N[C@H](C(C)C)C(=O)N5CCC[C@H]5C(=O)N(C)CC(=O)N(C)[C@@H](C(C)C)C(=O)O[C@@H]4C)c3nc-2c(C(=O)N[C@@H]2C(=O)N[C@H](C(C)C)C(=O)N3CCC[C@H]3C(=O)N(C)CC(=O)N(C)[C@@H](C(C)C)C(=O)O[C@@H]2C)c(N)c1=O` [Actinomycin D] (I: T[dV]P[Sar][NMeV] / II: T[dV]P[Sar][NMeV]; ester I:1-I:C, II:1-II:C; linker I:N-II:N via Actinocin(9to1))?
**A.** IC50 ([1]; CHO-AA8, 18 h): 3.7 nM; IC50 [2, 7]: 49.7 nM; Resistance (-fold), clonogenic assay, T19 versus AA8 ([2]; ratio of LD50 T19/AA8): 22.6 -fold; IC50 [3]: 2.2 nM; IC50 ([4]; 18 h): 42 nM; Resistance (-fold), ODC assay, T19 versus AA8 ([4]; incubation time 18 hr): 11.3 -fold

**Q.** Which results are given for `COc1ccc(C[C@H](N)C(=O)N[C@H]2[C@@H](O)[C@H](n3cnc4c(N(C)C)ncnc43)O[C@@H]2CO)cc1` [Puromycin]?
**A.** IC50 [1, 9]: 10.5 nM; IC50 [2, 7]: 116 nM; Resistance (-fold), clonogenic assay, T19 versus AA8 ([2]; hamster, t19 vs aa8 cells): 25.8 -fold; IC50 [3]: 4.5 nM; IC50 [4, 10]: 315 nM; Resistance (-fold), ODC assay, T19 versus AA8 ([4]; incubation time 48 hr): 30.0 -fold

**Q.** For `NCCCC(N)(C(=O)O)C(F)F` (racemic) [DMFO, DL-o-difluoromethylornithine], which IC50 ([5]; extract of AA8-induced cells (received fresh serum-containing medium), 2x10^7 cells) is on record?
**A.** Its IC50 is 5000 nM.

**Q.** What about the IC50 ([5]; extract of non-induced AA8 cells (no fresh medium), same number of cells) of the same molecule?
**A.** The IC50 was 1100 nM.

**Q.** What does the source list for `COc1ccc(OC)c(Cc2cnc3nc(N)nc(N)c3c2C)c1` [Piritrexim]?
**A.** IC50 [1, 9]: 5.8 nM; IC50 [2, 7]: 113 nM; Resistance (-fold), clonogenic assay, T19 versus AA8 ([2]; ratio of LD50 T19/AA8): 24.5 -fold; IC50 [3]: 4.6 nM; IC50 [4, 10]: 127 nM; Resistance (-fold), ODC assay, T19 versus AA8 ([4]; incubation time 48 hr): 22.0 -fold

**Q.** With `COc1cc2c(c(OC)c1OC)-c1ccc(OC)c(=O)cc1[C@@H](NC(C)=O)CC2` [Colchicine] as the molecule, how does the “ornithine decarboxylase activity with increased drug concentrations” value ([1]; exposure 6, 18 and 48 hours) read?
**A.** The value was “dose-dependent decrease”.

**Q.** And the IC50 ([2]; read-out: LD50 (50% lethal dose), clonal survival, t19 cells)?
**A.** Its IC50 is 6700 nM.

**Q.** What about the “LD50 (clonogenic assay) AA8” value [3] of the same molecule?
**A.** The value was 100 nM.
